These results are taken from patent publication US20240207258A1, “HETEROCYCLIC PDK1 INHIBITORS FOR USE TO TREAT CANCER” (Viracta Therapeutics, Inc., priority 2015, published 2024).

Test [1] concerns the target T1, Full-length phosphorylated PDK1 (Homo sapiens, UniProt O15530).
T1 sequence (O15530 1-556): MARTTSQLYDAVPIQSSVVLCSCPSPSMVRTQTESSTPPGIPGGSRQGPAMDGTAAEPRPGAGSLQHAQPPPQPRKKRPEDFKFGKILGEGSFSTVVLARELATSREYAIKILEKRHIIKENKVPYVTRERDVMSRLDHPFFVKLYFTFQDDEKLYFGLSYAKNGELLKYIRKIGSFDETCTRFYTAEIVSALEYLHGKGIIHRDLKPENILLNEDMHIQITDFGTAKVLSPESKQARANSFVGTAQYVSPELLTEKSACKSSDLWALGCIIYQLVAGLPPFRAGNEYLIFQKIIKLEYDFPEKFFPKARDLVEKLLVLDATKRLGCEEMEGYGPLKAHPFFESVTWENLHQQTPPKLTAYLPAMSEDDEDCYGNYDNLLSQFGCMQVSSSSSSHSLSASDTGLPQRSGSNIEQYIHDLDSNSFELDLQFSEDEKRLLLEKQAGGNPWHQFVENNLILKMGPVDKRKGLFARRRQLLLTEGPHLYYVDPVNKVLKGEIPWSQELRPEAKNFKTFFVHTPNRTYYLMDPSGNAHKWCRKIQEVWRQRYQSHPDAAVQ
Put plainly: Fluorescence polarization PIF-tide binding assay. The note with it: PDK1 saturating amounts of compound, FIG. 13C. A general note: Polarisation of emitted light reports the rotation of a fluorescent probe.

The test system of another test is Molm-13. The experiment in a line: MTS cell proliferation assay, Molm-13. Format: cell-based. Particulars: Homo sapiens; Molm-13, 72 hr. The method, then:
(§1) Cell proliferation was measured using the CellTiter 96 Aqueous Non-Radioactive Cell Proliferation Assay (Promega). The CellTiter 96® AQueous Assay is composed of solutions of a tetrazolium compound [3-(4,5-dimethylthiazol-2-yl)-5-(3-carboxymethoxyphenyl)-2-(4-sulfophenyl)-2H-tetrazolium, inner salt; MTS] and an electron coupling reagent (phenazine methosulfate) PMS. MTS is bioreduced by cells into a formazan product that is soluble in tissue culture medium. The absorbance of the formazan product at 490 nm can be measured directly from assay plates without additional processing. The quantity of formazan product as measured by the amount of 490 nm absorbance is directly proportional to the number of living cells in culture. Cells were seeded into 96-well or 384-well clear plates in a volume of 200 μL (96-well) or 50 μL (384-well) at optimized densities ranging from 1,000 to 40,000 cells per well for 96-well plates or 1,200 to 25,000 cells per well for 384-well plates depending on cell-line. After 4-6 hr recovery, serially diluted compounds in DMSO were added to the cells using (0.1% v/v final DMSO concentration). Cells were then grown at 37° C. in a humidified incubator with 5% CO2 for 72 hr. A 20:1 [3-(4,5-dimethylthiazol-2-yl)-5-(3-carboxymethoxyphenyl)-2-(4-sulfophenyl)-2H-tetrazolium](MTS):phenazine methosulfate (PMS) solution in DPBS was made immediately before use, added to each well, and cells were incubated for 1.5 hr at 37° C. The absorbance at 490 nm was then measured using a platereader. Absorbance values were normalized as percent of control (cells incubated in the presence of 0.1% v/v DMSO). Sigmoidal dose-response curves were plotted using log(inhibitor) vs. response—Variable slope (four parameters) model with a top value constrained to 100% (GraphPad Prism version 6.00 for Windows, GraphPad Software, La Jolla California USA). […] Curves for compounds that reached a plateau were matched exactly to the measurement points. […] To determine potential of compounds of the invention to affect viability of hematological cancers, cell lines representing various tumor types were selected and tested. Human cell lines tested were: MOLM-13 (acute myeloid leukemia (AML)), MV4-11 (AML), U-2932 (ABC-diffuse large B cell lymphoma), U-937 (histiocytic lymphoma), U-266 (multiple myeloma), RPMI-8226 (multiple myeloma), CMK (megakaryoblastic cell line), SU-DHL-4 (GCB-diffuse large B cell lymphoma), KG1 (AML), Mec-1 (chronic B-cell leukemia), MOLM-16 (AML), Jeko (B-cell lymphoma), WSU-DLCL2 (B-cell lymphoma), JJN3 (plasma cell leukemia), SU-DHL-6 (GCB-diffuse large B cell lymphoma), and Z-138 (mantle cell lymphoma). In addition, two murine cell lines were tested: A20 […].
Background: Formazan colour is commonly taken as a measure of viable cells.

The next test has as its system MV4-11. Put plainly: MTS cell proliferation assay, MV4-11. Format: cell-based, human. Particulars: Homo sapiens, MV4-11, 72 h, read-out: MTS proliferation assay (μM). The method, then:
(§2) Cell proliferation was measured using the CellTiter 96 Aqueous Non-Radioactive Cell Proliferation Assay (Promega). […] MTS is bioreduced by cells into a formazan product that is soluble in tissue culture medium. The absorbance of the formazan product at 490 nm can be measured directly from assay plates without additional processing. The quantity of formazan product as measured by the amount of 490 nm absorbance is directly proportional to the number of living cells in culture. Cells were seeded into 96-well or 384-well clear plates in a volume of 200 μL (96-well) or 50 μL (384-well) at optimized densities ranging from 1,000 to 40,000 cells per well for 96-well plates or 1,200 to 25,000 cells per well for 384-well plates depending on cell-line. After 4-6 hr recovery, serially diluted compounds in DMSO were added to the cells using (0.1% v/v final DMSO concentration). Cells were then grown at 37° C. in a humidified incubator with 5% CO2 for 72 hr. A 20:1 [3-(4,5-dimethylthiazol-2-yl)-5-(3-carboxymethoxyphenyl)-2-(4-sulfophenyl)-2H-tetrazolium](MTS):phenazine methosulfate (PMS) solution in DPBS was made immediately before use, added to each well, and cells were incubated for 1.5 hr at 37° C. The absorbance at 490 nm was then measured using a platereader. Absorbance values were normalized as percent of control (cells incubated in the presence of 0.1% v/v DMSO). Sigmoidal dose-response curves were plotted using log(inhibitor) vs. response—Variable slope (four parameters) model with a top value constrained to 100% (GraphPad Prism version 6.00 for Windows, GraphPad Software, La Jolla California USA). […] To determine potential of compounds of the invention to affect viability of hematological cancers, cell lines representing various tumor types were selected and tested. […] In addition, two murine cell lines were tested: A20 […].

A further test concerns U-2932. Put plainly: MTS cell proliferation assay, U-2932. The note with it: Homo sapiens, U2932; U-2932, 72 hr. Format: cell-based. The method, then: as §1
Another test deals with RPMI-8226. Put plainly: MTS cell proliferation assay, RPMI-8226. Format: cell-based. The note with it: Homo sapiens; RPMI-8226, 72 hr. The method, then: as §1
The test system of the next test is Jeko. Put plainly: MTS cell proliferation assay, Jeko. The format is cell-based. The note with it: Homo sapiens, 72 hr. The method, then: as §1
The next test has as its system A20. Put plainly: MTS cell proliferation assay, A20. The format is cell-based, murine. The note with it: Mus musculus; A20, 72 hr. The method, then:
as §1

A further test relates to C1498. The experiment in a line: MTS cell proliferation assay, C1498. Format: cell-based, murine. The note with it: Mus musculus, C1498, 72 h, read-out: MTS proliferation assay (μM). The method, then:
as §2

Another test deals with MV4-11 cells. The experiment in a line: Induction of apoptosis (Annexin V / propidium iodide flow cytometry). Format: cell-based, human. The method, then: Cells were seeded in a six-well tissue culture plate in 3 mL complete growth medium (3×10^5 cells/well) and allowed to equilibrate for 1 hr at 37° C. in a humidified incubator with 5% CO2. DMSO (control), test compound, or doxorubicin was added to the wells (0.1% final DMSO concentration). Cells were returned to the incubator for 24 hrs. On the day of analysis 1×10^5 cells were labeled according to manufacturer's instructions and analyzed by flow cytometry (BD FACSCaalibur™, GH) to determine the percent of apoptotic cells (annexin V positive, AV+) and/or apoptotic dead cells (AV+ and propidium iodide positive (PI+)).
On the technique in general: Flow cytometry measures light scatter and fluorescence of single cells or particles in a stream.

The next test concerns P-AKT. Put plainly: Western blot, AKT phosphorylation in A20 cells. Format: cell-based, murine. The method, then: For phosphoprotein analyses, cells were seeded into 10 cm petri dishes (10×10^6 cells/dish) in media supplemented with 10% FBS and penicillin/streptomycin. After cells recovered for 1 hr at 37° C., compounds were added in DMSO (0.1% final) and incubated for 4 or 24 hr at 37° C. Cells were then harvested by centrifugation and washed with cold PBS. Cell pellets were resuspended in cell extraction buffer (Invitrogen) supplemented with 2×Halt™ protease and phosphatase inhibitor cocktail (Thermo Scientific), 2 mM sodium orthovanadate, 10 mM EDTA and 4 mM PMSF. Samples were lysed by sonication and incubated on ice for 30 min. Cell debris was removed by centrifugation and protein concentrations were determined using the BCA Protein Assay Kit (Pierce). The clarified lysate was diluted in LDS sample buffer with reducing agent (Life Technologies). […] Gels were run at 110 V and proteins were transferred to a PVDF membrane. Membranes were blocked in TBS blocking buffer (Li-Cor Biosciences) for 1 hr. Primary antibodies (Cell Signaling, Sant Cruz Biotechnology) were added (1:1,000 dilution) in blocking buffer with 0.1% Tween-20 and 1:20,000 dilution of β-actin antibody and incubated for 14 hr at 4° C. Blots were washed in TBS-T. Label-conjugated goat anti-rabbit secondary antibody (IRdye® 800CW; Li-Cor Biosciences) was added in blocking buffer with 0.1% Tween-20 and 0.02% SDS and incubated for 1 hr. After washing in TBS-T followed by TBS, membranes were scanned on an Odyssey imaging system (Li-Cor Biosciences). Bands were quantitated using ImageJ.

In the next test the test system is P-PDK1. The experiment in a line: Pathway modulation in MV4-11 tumor xenografts, pPDK1. The format is in vivo, mice. The note with it: MV4-11 tumors, IP 50 mg/kg.
The subject of test [2] is hematologic tumor cell lines. Put plainly: MTS cell proliferation assay, panel of hematologic cancer cell lines. Particulars: 72 hrs, percent of control. Format: cell-based. The method, then: as §1
In test [3] the target is T1, Full-length phosphorylated PDK1. Put plainly: FRET-based PIF-tide binding assay. The note with it: 10 nM compound where stated, FIG. 13D.

Text for P-PDK1: MV4-11 cells propagated in vitro were implanted subcutaneous into the right flank of 9-week old female NCr nu/nu mice. On the day of implant, MV4-11 cells were harvested during log phase growth and resuspended in phosphate buffered saline (PBS) containing 50% Matrigel™ (BD Biosciences) at a concentration of 1×10^8 cells/mL. […] Two weeks after implantation, animals were assigned to individual groups of 3 animals with and average tumor volume of approximately 200 mm^3. […] Eight hours post-dose, full blood volume was collected by cardiac puncture under isoflurane anesthesia and tumors were excised and snapfrozen in liquid nitrogen and stored at −80° C. until further analysis. Tumors were pulverized in liquid nitrogen using a Biopulverizer and split into two sample tubes: one for Western blot analysis and one for analysis of compound levels by LC-MS/MS. […] For MS analysis, tumor samples were homogenized with a Virsonic 100 ultrasonic homogenizer. Each sample was first weighed, and then an appropriate volume of 20:80 methanol:water was added to make a 9 mL/gram sample. Samples were then homogenized on ice, and stored frozen until analysis. Standards were prepared in BALB/c mouse plasma or blank homogenized tumor tissue. Standards and samples were analyzed on a PE Sciex API4000 instrument and compound concentration was quantified and back-calculated to ng compound per g tumor tissue and converted to M concentration assuming 1 g tumor tissue equals 1 mL volume.

In the case of `O=C(NCCCNc1nc(Nc2cccc(NC(=O)N3CCCC3)c2)ncc1I)c1cccs1` [BX-795, reference compound], in [1], the “PIF-tide binding to PDK1 (fluorescence polarization, words)” value was “no interference with PIF-tide binding”.
With `CNc1nc(-c2ccc3c(N)n[nH]c3c2)cc(N2C[C@@H](C(=O)NC3CCCCC3)CC[C@H]2C)n1` [GSK2334470, reference compound], the EC50 in the test with Molm-13 was found to be 360 nM; in the test on MV4-11, 0.105 µM; in the test with U-2932, 986 nM; in the test on RPMI-8226 it was 2900 nM; in the test with Jeko it was 2250 nM; with A20 it was 490 nM. Moreover, in the test on C1498, the EC50 was 0.358 µM. For the same molecule, the “apoptosis at 100 nM” value in the test with MV4-11 cells (100 nM) is “no evidence of apoptosis”. For the same molecule, the concentration inducing apoptosis in the test with MV4-11 cells (24 hrs) is over 300 nM. Besides, in the test with P-AKT, the “P-AKT levels” value was “barely affected”. Moreover, the “pathway modulation and tumor exposure” value with P-PDK1 was “comparable to that of 50 mg/kg GDC0941 and 1 mg/kg Compound 1 or Compound 2”.
Consider `COc1cccc2c1C(=O)c1c(O)c3c(c(O)c1C2=O)C[C@@](O)(C(=O)CO)C[C@@H]3O[C@H]1C[C@H](N)[C@H](O)[C@H](C)O1` [doxorubicin, reference compound], for which, in test [2], the “plateau of growth inhibition curve at higher concentrations” value is recorded as under 20%.
Regarding `CN[C@@H]1C[C@H]2O[C@@](C)([C@@H]1OC)n1c3ccccc3c3c4c(c5c6ccccc6n2c5c31)C(=O)NC4` [staurosporine, reference compound], the “FRET between PDK1 and PIF-tide” value in test [3] is “does not inhibit FRET”.
